Counter-ions that a name gives are not always drawn. Like-named read-outs stand apart in the source and are kept apart here.
What was measured:
in vivo = details: for Approx. LD50 /ED50: chemotherapeutic index, mouse oral, N. dubius; for LD50: mouse, in vivo, po; for Dead/Total: mice
Excerpt: Data on the acute oral toxicity to mice of various single oral doses of the above compounds and several analogs were obtained by conventional procedures, (Table IX hereinafter).

Nematospiroides dubius = experiment: Anthelmintic efficacy against N. dubius in mice, single oral dose; format: in vivo, Nematospiroides dubius (in albino female mice); details: for inhibition in vivo at 5 mg/kg: single oral dose 5.0 mg./Kg.; for inhibition in vivo at 10 mg/kg: single oral dose 10 mg./Kg.; for inhibition in vivo at 20 mg/kg: single oral dose 20 mg./Kg.; for inhibition in vivo at 1.25 mg/kg: single oral dose 1.25 mg./Kg.; for inhibition in vivo at 2 mg/kg: single oral dose 2.0 mg./Kg.
Protocol: Albino female mice are each inoculated with about 20 infectious larvae of Nematospiroides dubius. This nematode is a representative of the economical important trichostrongylis worms of ruminants and other hosts, and of nematodes in general. Twenty-two days after inoculation, groups of four randomly selected mice containing adult N. dubius are given single oral doses of test compounds dissolved or suspended in 0.4 ml. of water per 20 gram mouse. At 26 or 27 days after inoculation, treated mice and in each test four randomly selected groups of untreated mice are necropsied. The number of worms in the small intestine of each mouse are determined by microscopic examination. Average worm numbers for each treated group and for the untreated controls are computed and the percent efficacy determined by the customary formula:
(Average Worms in Control - Average Worms in Treated)/(Average Worms in Control) X 100.

[1] = Approx. LD50, mouse oral, Table IX
[2] = LD50, mice, adjusted to molar equivalents of tetramisole free base
[3] = Heligmosomoides polygyrus, po, as Base, single oral dose, mice, > indicates inactive at dose shown, read-out: Approx. ED50
[4] = Heligmosomoides polygyrus, po, mouse oral, Table IX, read-out: Approx. ED50 vs. N. dubius
[5] = Heligmosomoides polygyrus, po, molar-adjusted, read-out: Percent Nematospiroides Activity
[6] = as Base, single oral dose, mice, > indicates inactive at dose shown

In the case of CC(C)(C)C(=O)Nc1cccc(C2CN3CCSC3=N2)c1 (racemic) [m-NH--CO--C(CH3)3 dl], the “Approx. LD50 /ED50” value (in vivo; Table IX) is reported as 33, the LD50 (in vivo; [1]) is reported as 100 mg/kg and the LD50 (in vivo; [2]) is reported as ~100 mg/kg. For the same compound, the Dead/Total (in vivo; single oral dose 50 Mg./Kg.) was 0/6, the Dead/Total (in vivo; single oral dose 100 Mg./Kg.) was 2/6 and the Dead/Total (in vivo; single oral dose 200 Mg./Kg.) was 5/6. It also gave an ED50 (Nematospiroides dubius; [3]) of 3 mg/kg, an ED50 (Nematospiroides dubius; [4]) of 3 mg/kg and an inhibition in vivo at 5 mg/kg (Nematospiroides dubius; [5]) of 75%. It also gave an inhibition in vivo at 10 mg/kg (Nematospiroides dubius; [5]) of 88% and an inhibition in vivo at 20 mg/kg (Nematospiroides dubius; [5]) of 100%.

In the case of CC(C)C(=O)Nc1cccc(C2CN3CCSC3=N2)c1.Cl (stereo not drawn) [m-NH--CO--CH(CH3)2 dl, 3'-(2,3,5,6-tetrahydroimidazo[2,1-b]thiazol-6-yl)isobutyranilide hydrochloride], the “Approx. LD50 /ED50” value (in vivo; Table IX) is reported as 20, the LD50 (in vivo; [1]) is reported as ~60 mg/kg and the LD50 (in vivo; [2]) is reported as ~75 mg/kg. For the same compound, the Dead/Total (in vivo; single oral dose 40 Mg./Kg.) was 1/6, the Dead/Total (in vivo; single oral dose 80 Mg./Kg.) was 5/6 and the Dead/Total (in vivo; single oral dose 120 Mg./Kg.) was 6/6. It also gave an ED50 (Nematospiroides dubius; [3]) of 3 mg/kg, an ED50 (Nematospiroides dubius; [4]) of 3 mg/kg and an inhibition in vivo at 5 mg/kg (Nematospiroides dubius; [5]) of 99%. The inhibition in vivo at 10 mg/kg (Nematospiroides dubius; [5]) was 100% and the inhibition in vivo at 20 mg/kg (Nematospiroides dubius; [5]) was 100%.

In the case of O=C(Nc1cccc(C2CN3CCSC3=N2)c1)c1ccc([N+](=O)[O-])cc1 (stereo not shown) [Table XII b1857], the LD50 (in vivo; [2]) is reported as 60 to 90 mg/kg, the inhibition in vivo at 1.25 mg/kg (Nematospiroides dubius; [5]) is reported as 65% and the inhibition in vivo at 2 mg/kg (Nematospiroides dubius; [5]) is reported as 78%. It also gave an inhibition in vivo at 5 mg/kg (Nematospiroides dubius; [5]) of 100% and an inhibition in vivo at 10 mg/kg (Nematospiroides dubius; [5]) of 100%.

Compound Cl.Cl.Nc1cccc(C2CN3C=CSC3=N2)c1 (stereo not drawn) [5,6-dihydro m-NH2 dl, 6-(m-Aminophenyl)-5,6-dihydroimidazo[2,1-b]thiazole dihydrochloride] has an LD50 (in vivo; [1]) of 10 mg/kg, an LD50 (in vivo; [2]) of ~80 mg/kg and an ED50 (Nematospiroides dubius; [3]) of 1.5 mg/kg. For the same compound, the ED50 (Nematospiroides dubius; [4]) was 1.5 mg/kg, the inhibition in vivo at 2 mg/kg (Nematospiroides dubius; [5]) was 53% and the inhibition in vivo at 5 mg/kg (Nematospiroides dubius; [5]) was 96%. It also gave an inhibition in vivo at 10 mg/kg (Nematospiroides dubius; [5]) of 100%.

With CCCC(=O)Nc1cccc(C2CN3CCSC3=N2)c1 (racemic) [m-NH--CO--C3 H7n dl] the “Approx. LD50 /ED50” value (in vivo; Table IX) was 20, the LD50 (in vivo; [1]) was 40 mg/kg and the LD50 (in vivo; [2]) was 30 to 40 mg/kg. For the same compound, the Dead/Total (in vivo; single oral dose 40 Mg./Kg.) was 3/5, the Dead/Total (in vivo; single oral dose 60 Mg./Kg.) was 4/5 and the Dead/Total (in vivo; single oral dose 80 Mg./Kg.) was 4/5. For the same compound, the Dead/Total (in vivo; single oral dose 100 Mg./Kg.) was 5/5, the ED50 (Nematospiroides dubius; [3]) was 2 mg/kg and the ED50 (Nematospiroides dubius; [4]) was 2 mg/kg. It also gave an inhibition in vivo at 1.25 mg/kg (Nematospiroides dubius; [5]) of 43%, an inhibition in vivo at 2 mg/kg (Nematospiroides dubius; [5]) of 58% and an inhibition in vivo at 5 mg/kg (Nematospiroides dubius; [5]) of 99%. The inhibition in vivo at 10 mg/kg (Nematospiroides dubius; [5]) was 100%.

With CCC(CC)C(=O)Nc1cccc(C2CN3CCSC3=N2)c1 (racemic) [m-NH-CO-CH(C2 H5)2 dl] the “Approx. LD50 /ED50” value (in vivo; Table IX) was 21, the LD50 (in vivo; [1]) was 160 mg/kg and the LD50 (in vivo; [2]) was ~160 mg/kg. For the same compound, the Dead/Total (in vivo; single oral dose 80 Mg./Kg.) was 0/6, the Dead/Total (in vivo; single oral dose 120 Mg./Kg.) was 0/6 and the Dead/Total (in vivo; single oral dose 180 Mg./Kg.) was 3/6. The ED50 (Nematospiroides dubius; [3]) was 7.5 mg/kg, the ED50 (Nematospiroides dubius; [4]) was 7.5 mg/kg and the inhibition in vivo at 10 mg/kg (Nematospiroides dubius; [5]) was 85%. For the same compound, the inhibition in vivo at 20 mg/kg (Nematospiroides dubius; [5]) was 99% and the inhibition in vivo at 40 mg/kg (Nematospiroides dubius; Heligmosomoides polygyrus, po, single oral dose 40 mg./Kg., molar-adjusted, read-out: Percent Nematospiroides Activity) was 100%.

For CC(=O)Nc1cccc(C2CN3CCSC3=N2)c1 (stereo not drawn) [m-NH--CO--CH3 dl, 3'-(2,3,5,6-Tetrahydroimidazo[2,1-b]thiazol-6-yl)acetanilide], the LD50 (in vivo; [1]) was > 10 mg/kg, the ED50 (Nematospiroides dubius; [3]) was 4 mg/kg and the ED50 (Nematospiroides dubius; [4]) was 3 to 4 mg/kg.

With Nc1ccccc1C1CN2CCSC2=N1 (racemic) [dl 2HCl NH2 ortho, reference compound] the ED50 (Nematospiroides dubius; [3]) was > 100 mg/kg.

In the case of O=[N+]([O-])c1ccc(C2CN3CCSC3=N2)cc1 (stereo not shown) [d HCl NO2 para, reference compound], the “Approx. ED50” value (Nematospiroides dubius; [6]) is reported as > 200 Mg./Kg.

With COc1cccc(C2CN3CCSC3=N2)c1 (racemic) [dl HBr OCH3 meta, reference compound] the ED50 (Nematospiroides dubius; [3]) was > 10 mg/kg.

With Nc1cccc(C2CN3CCSC3=N2)c1 (stereo not drawn) [d 2HCl NH2 meta, d-2,3,5,6-Tetrahydro-6-(m-aminophenyl)imidazo[2,1-b]thiazoleDihydrochloride] the “Approx. ED50” value (Nematospiroides dubius; [6]) was 10 Mg./Kg.

Compound c1ccc(CNc2cccc(C3CN4CCSC4=N3)c2)cc1 (stereo not shown) [Table XII b1716] has an inhibition in vivo at 5 mg/kg (Nematospiroides dubius; [5]) of 56%, an inhibition in vivo at 10 mg/kg (Nematospiroides dubius; [5]) of 91% and an inhibition in vivo at 20 mg/kg (Nematospiroides dubius; [5]) of 95%.

With O=[N+]([O-])c1cccc(C2CN3C=CSC3=N2)c1 (racemic) [dl HClO4 NO2 * meta, reference compound] the ED50 (Nematospiroides dubius; [3]) was 25 mg/kg.

In the case of Cc1cccc(C2CN3CCSC3=N2)c1 (racemic) [dl HCl CH3 meta, reference compound], the ED50 (Nematospiroides dubius; [3]) is reported as > 10 mg/kg.

— US3989835A, “Method of using 6-substituted amino phenyl-2,3,5,6-tetra-hydro[2,1-b]thiazoles for controlling gastrointestinal nematodes” (American Cyanamid Company, priority 1974, dated 1976)
